Results reported in patent US11382956B2, “Amylin analogues” (Zealand Pharma A/S, priority 2016, dated 2022).
pEC50: −log10 of the molar value. Numbered stars: 1 amine (or outer) side, 2 acyl side, 3 side chain; on linkers, the order of the positions; unused ones are H or OH. Bridge positions count the residues as written; N and C are the ends. Square brackets hold non-standard residues; d marks the D form. Peptide text beside a SMILES is read from it. * marks the point of attachment. C20 diacid = O=C(O)CCCCCCCCCCCCCCCCCCC(=O)*; γGlu = O=C(O)[C@H](CCC(=O)[*:2])N[*:1]; Hyp = O=C(O)[C@@H]1C[C@@H](O)CN1; NMeI = CC[C@H](C)[C@H](NC)C(=O)O; Aad = N[C@@H](CCCC(=O)O)C(=O)O; Orn = NCCC[C@H](N)C(=O)O; Sar = CNCC(=O)O

Legend:
[1] = molecular target: T1, recombinant human amylin 3 receptor (hAMYR3) (Homo sapiens, UniProt O60896+P30988); experiment: hAMYR3 cAMP assay (AlphaScreen) in 1321N1 cells; format: cell-based; details: cAMP formation, 45 min stimulation
T1 construct: host or cells: human astrocytoma cell line 1321N1
T1 sequence (P30988 25-474): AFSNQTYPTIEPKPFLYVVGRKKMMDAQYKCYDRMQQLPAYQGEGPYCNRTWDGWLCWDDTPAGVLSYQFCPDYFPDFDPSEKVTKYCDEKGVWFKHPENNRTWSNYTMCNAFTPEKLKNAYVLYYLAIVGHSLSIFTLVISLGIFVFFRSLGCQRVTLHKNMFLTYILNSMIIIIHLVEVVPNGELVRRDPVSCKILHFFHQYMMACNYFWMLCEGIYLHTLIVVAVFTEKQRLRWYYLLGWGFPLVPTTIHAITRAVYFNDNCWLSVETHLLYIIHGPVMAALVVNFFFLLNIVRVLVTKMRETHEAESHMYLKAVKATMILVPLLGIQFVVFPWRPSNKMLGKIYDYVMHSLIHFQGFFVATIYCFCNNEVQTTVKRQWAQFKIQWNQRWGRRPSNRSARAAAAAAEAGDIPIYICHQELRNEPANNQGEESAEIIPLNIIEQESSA
T1 sequence (O60896 24-148 partner): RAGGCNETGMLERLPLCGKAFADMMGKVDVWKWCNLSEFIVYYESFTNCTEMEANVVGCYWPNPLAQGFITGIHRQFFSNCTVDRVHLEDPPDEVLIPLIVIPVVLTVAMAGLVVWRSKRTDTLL
Excerpt: (§1) For the assessment of the in vitro activity of test peptides, cell lines expressing recombinant human calcitonin receptor (hCT-R) or recombinant human amylin 3 receptor (hAMYR3) in the background of the human astrocytoma cell line 1321N1 were purchased from DiscoveRx Corporation (Cat. No. 95-016106 and 95-0166C6). The hAMYR3 is a hetero-oligomer of the calcitonin receptor (Isoform 2; Gene ID 799) and RAMPS (Gene ID 10268) that forms when both genes are expressed in the same cell. The hCT-R cell line expresses only the recombinant human calcitonin receptor gene (Isoform 2; Gene ID 799). Upon activation of hCT-R or hAMYR3 by the test peptides the formation of cAMP is induced and was measured using the AlphaScreen® cAMP Assay kit from Perkin-Elmer (Cat. No. 6760635R).
(§2) Briefly, 1321N1 cells expressing hCT-R or hAMYR3 were seeded in 384-well microtiter plates (Falcon Optilux White, Cat.-No. 10448642) at 5,000 cells in […] growth medium per well (AssayComplete 1321N1 Cell Culture Kit, DiscoveRx Corp.), and incubated for 24 h at 37° C., 5% CO2. On the day of analysis growth medium was removed and the cells were stimulated by adding 10 μL of stimulation buffer (10 […], 0.1% BSA) containing increasing concentrations of test peptides, and incubation for 45 min at room temperature. The stimulation was stopped by adding 5.6 μL/well donor bead detection mix (5 mM Hepes pH7.4, 0.5% TWEEN 20, 0.1% BSA, 0.05 mg/mL donor beads, 62.5 nM biotinylated cAMP) and 4.5 μL/well acceptor bead solution (5 mM Hepes pH7.4, 0.5% TWEEN 20, 0.1% BSA, 0.05 mg/mL acceptor beads). After thorough mixing the plates were incubated in the dark for 1 h at room temperature and the cAMP content of the resulting cell lysates was estimated according to the AlphaScreen® cAMP Assay manufacturer's instructions. EC50 values were estimated by computer-aided curve fitting of results of at least 7 different compound concentrations.

[2] = molecular target: T2, recombinant human calcitonin receptor (hCT-R) (Homo sapiens, UniProt P30988); experiment: hCT-R cAMP assay (AlphaScreen) in 1321N1 cells; format: cell-based; details: cAMP formation, 45 min stimulation
T2 construct: host or cells: human astrocytoma cell line 1321N1
T2 sequence (P30988 25-474): T1 sequence (P30988 25-474)
Excerpt: as §1, §2

Compound	pEC50 [1]	pEC50 [2]
CC[C@H](C)[C@@H](C(=O)N[C@@H](CC(C)C)C(=O)N[C@@H](CO)C(=O)N[C@@H](CO)C(=O)N[C@H](C(=O)N[C@@H](CCC(=O)O)C(=O)N[C@H](C(=O)NCC(=O)N[C@@H](CO)C(=O)N[C@@H](CO)C(=O)N[C@H](C(=O)N1C[C@H](O)C[C@H]1C(N)=O)[C@@H](C)O)C(C)C)[C@@H](C)O)N(C)C(=O)[C@H](C)NC(=O)CN(C)C(=O)[C@H](Cc1ccccc1)NC(=O)[C@H](CO)NC(=O)[C@H](CO)NC(=O)[C@H](CCCNC(=N)N)NC(=O)[C@@H](NC(=O)[C@H](CC(C)C)NC(=O)[C@H](Cc1ccccc1)NC(=O)[C@H](CCCC(=O)O)NC(=O)[C@H](C)NC(=O)[C@H](CC(C)C)NC(=O)[C@H](CCCNC(=N)N)NC(=O)[C@H](CCC(=O)O)NC(=O)[C@@H](NC(=O)[C@H](C)NC(=O)[C@@H]1CCCNC(=O)C[C@H](NC(=O)[C@H](CCCNC(=N)N)NC(=O)CC[C@H](NC(=O)CCCCCCCCCCCCCCCCCCC(=O)O)C(=O)O)C(=O)NCC(=O)N[C@@H]([C@@H](C)O)C(=O)N[C@@H](C)C(=O)N[C@@H]([C@@H](C)O)C(=O)N1)[C@@H](C)O)[C@@H](C)O [Compound 22, [19CD]-isoGlu-RD()GTAT-Orn()-ATERLA-Aad-FLTRSSF-Gly(Me)-A-Ile(Me)-LSSTEVGSST-Hyp-NH2] ({C20 diacid-γGlu}-RDGTAT[Orn]ATERLA[Aad]FLTRSSF[Sar]A[NMeI]LSSTEVGSST[Hyp]-NH2; lactam 2-7)	10.29	9.32
CC[C@H](C)[C@@H](C(=O)N[C@@H](CC(C)C)C(=O)N[C@@H](CO)C(=O)N[C@@H](CO)C(=O)N[C@H](C(=O)N[C@@H](CCC(=O)O)C(=O)N[C@H](C(=O)NCC(=O)N[C@@H](CO)C(=O)N[C@@H](CC(N)=O)C(=O)N[C@H](C(=O)N1C[C@H](O)C[C@H]1C(N)=O)[C@@H](C)O)C(C)C)[C@@H](C)O)N(C)C(=O)[C@H](C)NC(=O)CN(C)C(=O)[C@H](Cc1ccccc1)NC(=O)[C@@H](NC(=O)[C@@H](NC(=O)[C@H](CCCNC(=N)N)NC(=O)[C@H](CCC(N)=O)NC(=O)[C@H](CC(C)C)NC(=O)[C@H](Cc1ccccc1)NC(=O)[C@H](CCCC(=O)O)NC(=O)[C@H](C)NC(=O)[C@H](CC(C)C)NC(=O)[C@H](CCCNC(=N)N)NC(=O)[C@H](CCC(=O)O)NC(=O)[C@@H](NC(=O)[C@H](C)NC(=O)[C@@H]1CCCNC(=O)C[C@H](NC(=O)[C@H](CCCNC(=N)N)NC(=O)CC[C@H](NC(=O)CCCCCCCCCCCCCCCCCCC(=O)O)C(=O)O)C(=O)NCC(=O)N[C@@H]([C@@H](C)O)C(=O)N[C@@H](C)C(=O)N[C@@H]([C@@H](C)O)C(=O)N1)[C@@H](C)O)[C@@H](C)O)[C@@H](C)O [Compound 23, [19CD]-isoGlu-RD()GTAT-Orn()-ATERLA-Aad-FLQRTTF-Gly(Me)-A-Ile(Me)-LSSTEVGSNT-Hyp-NH2] ({C20 diacid-γGlu}-RDGTAT[Orn]ATERLA[Aad]FLQRTTF[Sar]A[NMeI]LSSTEVGSNT[Hyp]-NH2; lactam 2-7)	9.15	8.71

The remaining lines, values ahead:

pEC50 [1]	pEC50 [2]	Compound
10.89	10.57	CC[C@H](C)[C@@H](C(=O)N1CCC[C@H]1C(=O)N[C@@H](CO)C(=O)N[C@@H](CO)C(=O)N[C@H](C(=O)N[C@@H](CCC(=O)O)C(=O)N[C@H](C(=O)NCC(=O)N[C@@H](CO)C(=O)N[C@@H](CC(N)=O)C(=O)N[C@H](C(=O)N1C[C@H](O)C[C@H]1C(N)=O)[C@@H](C)O)C(C)C)[C@@H](C)O)N(C)C(=O)[C@H](C)NC(=O)CN(C)C(=O)[C@H](Cc1ccccc1)NC(=O)[C@H](CO)NC(=O)[C@H](CO)NC(=O)[C@H](CCCNC(=N)N)NC(=O)[C@H](CCC(N)=O)NC(=O)[C@H](CC(C)C)NC(=O)[C@H](Cc1ccccc1)NC(=O)[C@H](Cc1c[nH]cn1)NC(=O)[C@H](C)NC(=O)[C@H](CC(C)C)NC(=O)[C@H](CCCNC(=N)N)NC(=O)[C@H](CCC(N)=O)NC(=O)[C@@H](NC(=O)[C@H](C)NC(=O)[C@@H]1CCCNC(=O)C[C@H](NC(=O)[C@H](CCCNC(=N)N)NC(=O)CC[C@H](NC(=O)CCCCCCCCCCCCCCCCCCC(=O)O)C(=O)O)C(=O)NCC(=O)N[C@@H]([C@@H](C)O)C(=O)N[C@@H](C)C(=O)N[C@@H]([C@@H](C)O)C(=O)N1)[C@@H](C)O [Compound 9, [19CD]-isoGlu-RD()GTAT-Orn()-ATQRLAHFLQRSSF-Gly(Me)-A-Ile(Me)-PSSTEVGSNT-Hyp-NH2] ({C20 diacid-γGlu}-RDGTAT[Orn]ATQRLAHFLQRSSF[Sar]A[NMeI]PSSTEVGSNT[Hyp]-NH2; lactam 2-7)
9.00	9.05	CC[C@H](C)[C@@H](C(=O)N[C@@H](CC(C)C)C(=O)N[C@@H](CO)C(=O)N[C@@H](CO)C(=O)N[C@H](C(=O)N[C@@H](CCC(=O)O)C(=O)N[C@H](C(=O)NCC(=O)N[C@@H](CO)C(=O)N[C@@H](CC(N)=O)C(=O)N[C@H](C(=O)N1C[C@H](O)C[C@H]1C(N)=O)[C@@H](C)O)C(C)C)[C@@H](C)O)N(C)C(=O)[C@H](C)NC(=O)CN(C)C(=O)[C@H](Cc1ccccc1)NC(=O)[C@H](CO)NC(=O)[C@H](CO)NC(=O)[C@H](CCCNC(=N)N)NC(=O)[C@H](CCC(N)=O)NC(=O)[C@H](CC(C)C)NC(=O)[C@H](Cc1ccccc1)NC(=O)[C@H](Cc1c[nH]cn1)NC(=O)[C@H](C)NC(=O)[C@H](CC(C)C)NC(=O)[C@H](CCCNC(=N)N)NC(=O)[C@H](CCC(=O)O)NC(=O)[C@@H](NC(=O)[C@H](C)NC(=O)[C@@H]1CCCCNC(=O)C[C@H](NC(=O)[C@H](CCCNC(=N)N)NC(=O)CC[C@H](NC(=O)CCCCCCCCCCCCCCCCCCC(=O)O)C(=O)O)C(=O)NCC(=O)N[C@@H](CCC(=O)O)C(=O)N[C@@H](C)C(=O)N[C@@H]([C@@H](C)O)C(=O)N1)[C@@H](C)O [Compound 12, [19CD]-isoGlu-RD()GEATK()ATERLAHFLQRSSF-Gly(Me)-A-Ile(Me)-LSSTEVGSNT-Hyp-NH2] ({C20 diacid-γGlu}-RDGEATKATERLAHFLQRSSF[Sar]A[NMeI]LSSTEVGSNT[Hyp]-NH2; lactam 2-7)
9.34	8.85	CC[C@H](C)[C@@H](C(=O)N[C@@H](CC(C)C)C(=O)N[C@@H](CO)C(=O)N[C@@H](CO)C(=O)N[C@H](C(=O)N[C@@H](CCC(=O)O)C(=O)N[C@H](C(=O)NCC(=O)N[C@@H](CO)C(=O)N[C@@H](CC(N)=O)C(=O)N[C@H](C(=O)N1C[C@H](O)C[C@H]1C(N)=O)[C@@H](C)O)C(C)C)[C@@H](C)O)N(C)C(=O)[C@H](C)NC(=O)CN(C)C(=O)[C@H](Cc1ccccc1)NC(=O)[C@H](CO)NC(=O)[C@H](CO)NC(=O)[C@H](CCCNC(=N)N)NC(=O)[C@H](CCC(N)=O)NC(=O)[C@H](CC(C)C)NC(=O)[C@H](Cc1ccccc1)NC(=O)[C@H](Cc1c[nH]cn1)NC(=O)[C@H](C)NC(=O)[C@H](CC(C)C)NC(=O)[C@H](CCCNC(=N)N)NC(=O)[C@H](CCC(=O)O)NC(=O)[C@@H](NC(=O)[C@H](C)NC(=O)[C@@H]1CCCCNC(=O)C[C@H](NC(=O)[C@H](CCCNC(=N)N)NC(=O)CC[C@H](NC(=O)CCCCCCCCCCCCCCCCCCC(=O)O)C(=O)O)C(=O)NCC(=O)N[C@@H]([C@@H](C)O)C(=O)N[C@@H](CC(C)C)C(=O)N[C@@H]([C@@H](C)O)C(=O)N1)[C@@H](C)O [Compound 13, [19CD]-isoGlu-RD()GTLTK()ATERLAHFLQRSSF-Gly(Me)-A-Ile(Me)-LSSTEVGSNT-Hyp-NH2] ({C20 diacid-γGlu}-RDGTLTKATERLAHFLQRSSF[Sar]A[NMeI]LSSTEVGSNT[Hyp]-NH2; lactam 2-7)
